Assay results taken from patent US10829478B2, “5-[3-[piperazin-1-yl]-3-oxo-propyl]-imidazolidine-2,4-dione derivatives as ADAMTS 4 and 5 inhibitors for treating e.g. osteoarthritis” (Galapagos NV, priority 2016, dated 2020).
Read-outs that look alike come from different tables or passages of the source.

Legend:
human ADAMTS4 = human ADAMTS4 (Homo sapiens (Human), UniProt O75173); assay: hADAMTS-4 TBIS-1 cleavage assay, Protocol 2; type: biochemical
human TACE = human TACE (Homo sapiens (Human), UniProt P78536); assay: biochemical
Method: Finally, the fluorescence is read on the Envision (Perkin Elmer) after an incubation of 75 min at room temperature (Excitation 485 nm, Emission 530).

human ADAMTS6 = human ADAMTS6 (Homo sapiens (Human), UniProt Q9UKP5); assay: hADAMTS-6 fluorescent based protease assay (520 MMP FRET substrate XII); type: biochemical; settings: 37° C. for 2 h; read-out: hADAMTS-6 potency IC50
Method: The IC50 value for test compounds can be determined in a fluorescent based protease assay.
The substrate contains sequence Arg-Pro-Lys-Pro-Tyr-Ala-Nva-Trp-Met-Lys (SEQ ID NO: 7) with attached a fluorescent probe and a quencher. Without ADAMTS6, the emission of the probe is quenched. If the substrate is cleaved by ADAMTS6, the emission of the probe is not quenched anymore. Inhibition of ADAMTS6 activity, will result in a decrease of the signal.
To perform the assay, 4 μL of a dilution series of compound in water, starting from 20 μM highest concentration, ⅕ dilution, is added to the wells. 2 ng ADAMTS6 enzyme is diluted in 25 mM Tris pH8.0, 0.05% CHAPS, 2.5 mM CaCl2 in a total volume of 26 μL (final concentration 0.73 nM). The reaction is started by addition of 10 μL of 1 μM 520 MMP FRET Substrate XII (final concentration, diluted in same buffer as described above) and the mixture is incubated at 37° C. for 2 h. […] After this incubation, cleavage of the substrate is measured using the Envision (Perkin Elmer, exc485/em530).

human MMP13 [1] = target: T1, human MMP13 (Homo sapiens (Human), UniProt P45452); assay: hMMP13 assay, Protocol 2 (390 MMP FRET Substrate I, Enzo enzyme); type: biochemical; settings: Protocol 2, human MMP13 (Enzo Life Sciences), read-out: hMMP-13 potency IC50
Method: (§1) Human MMP13 is preactivated by incubated the enzyme in the same buffer complemented with 1 mM freshly prepared p-Aminophenylmercuric acetate (AMPA) for 1 h at 37° C.

human ADAMTS-5 = human ADAMTS-5 (Homo sapiens (Human), UniProt Q9UNA0); assay: hADAMTS-5 TBIS-1 cleavage assay, Protocol 3; type: biochemical; settings: 90 min at 37° C., read-out: hADAMTS-5 potency IC50
Method: The reaction is initiated by adding to the assay plate TBIS-1 (10 μL, 4.5 μM, Anaspec) in the same buffer.
Finally, the fluorescence is read on the Envision (Perkin Elmer) after an incubation of 90 min at 37° C. (Excitation 485 nm, emission 530).

human MMP14 = human MMP14 (Homo sapiens (Human), UniProt P50281); assay: hMMP14 assay (390 MMP FRET Substrate I); type: biochemical; settings: human MMP14 (Biomol), read-out: hMMP-14 potency IC50
Method: The basis for the assay is the cleavage of the substrate 390 MMP FRET Substrate I (Anaspec Cat #AS-27076) by human MMP14 (Biomol, Cat #SE-259).
The reaction is initiated by adding to the assay plate 390 MMP FRET Substrate I (10 μL, 2.5 μM) in the same buffer.
Finally, the fluorescence is read on the Envision (Perkin Elmer) after an incubation of 60 min at room temperature (Excitation 485 nm, Emission 530).

human MMP13 [2] = target: T1, human MMP13; assay: hMMP13 assay, Protocol 1 (390 MMP FRET Substrate I, Chemicon enzyme); type: biochemical; settings: Protocol 1, human MMP13 (Chemicon), read-out: hMMP-13 potency IC50
Method: as §1

[3] = Protocol 2, 180 min at 37° C., read-out: ADAMTS4 potency IC50

Chain of human ADAMTS6 (Q9UKP5 other isoform, or with tags, fused parts or gaps): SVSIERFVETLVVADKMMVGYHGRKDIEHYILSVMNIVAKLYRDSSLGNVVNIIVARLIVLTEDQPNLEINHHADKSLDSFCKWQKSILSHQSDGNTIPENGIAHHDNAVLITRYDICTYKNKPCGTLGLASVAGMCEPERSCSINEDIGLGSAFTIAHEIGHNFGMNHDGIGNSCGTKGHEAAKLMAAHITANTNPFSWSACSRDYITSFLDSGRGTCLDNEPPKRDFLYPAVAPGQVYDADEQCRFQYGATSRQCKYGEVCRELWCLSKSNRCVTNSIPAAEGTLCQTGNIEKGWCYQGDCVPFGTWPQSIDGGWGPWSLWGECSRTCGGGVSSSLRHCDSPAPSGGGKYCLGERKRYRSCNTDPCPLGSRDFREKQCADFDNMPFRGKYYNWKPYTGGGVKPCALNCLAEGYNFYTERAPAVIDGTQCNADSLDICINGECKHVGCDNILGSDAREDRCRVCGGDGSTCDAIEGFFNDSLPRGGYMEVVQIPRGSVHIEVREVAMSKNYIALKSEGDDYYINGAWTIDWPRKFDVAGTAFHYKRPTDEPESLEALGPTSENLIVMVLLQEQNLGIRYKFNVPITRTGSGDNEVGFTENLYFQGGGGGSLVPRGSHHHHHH
Chain of human TACE (P78536 215-671): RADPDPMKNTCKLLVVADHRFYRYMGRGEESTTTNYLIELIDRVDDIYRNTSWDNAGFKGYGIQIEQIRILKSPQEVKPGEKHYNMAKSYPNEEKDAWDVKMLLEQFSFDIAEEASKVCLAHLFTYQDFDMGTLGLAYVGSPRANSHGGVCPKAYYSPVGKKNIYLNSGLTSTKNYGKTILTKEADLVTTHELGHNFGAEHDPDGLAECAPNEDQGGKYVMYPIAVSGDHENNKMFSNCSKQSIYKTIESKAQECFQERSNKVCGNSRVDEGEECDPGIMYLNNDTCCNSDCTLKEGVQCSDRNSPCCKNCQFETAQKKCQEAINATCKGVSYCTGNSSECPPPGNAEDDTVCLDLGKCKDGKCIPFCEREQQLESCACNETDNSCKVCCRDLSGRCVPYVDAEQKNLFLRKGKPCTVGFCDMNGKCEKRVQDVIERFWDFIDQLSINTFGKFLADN
Chain of human ADAMTS-5 (Q9UNA0 262-930): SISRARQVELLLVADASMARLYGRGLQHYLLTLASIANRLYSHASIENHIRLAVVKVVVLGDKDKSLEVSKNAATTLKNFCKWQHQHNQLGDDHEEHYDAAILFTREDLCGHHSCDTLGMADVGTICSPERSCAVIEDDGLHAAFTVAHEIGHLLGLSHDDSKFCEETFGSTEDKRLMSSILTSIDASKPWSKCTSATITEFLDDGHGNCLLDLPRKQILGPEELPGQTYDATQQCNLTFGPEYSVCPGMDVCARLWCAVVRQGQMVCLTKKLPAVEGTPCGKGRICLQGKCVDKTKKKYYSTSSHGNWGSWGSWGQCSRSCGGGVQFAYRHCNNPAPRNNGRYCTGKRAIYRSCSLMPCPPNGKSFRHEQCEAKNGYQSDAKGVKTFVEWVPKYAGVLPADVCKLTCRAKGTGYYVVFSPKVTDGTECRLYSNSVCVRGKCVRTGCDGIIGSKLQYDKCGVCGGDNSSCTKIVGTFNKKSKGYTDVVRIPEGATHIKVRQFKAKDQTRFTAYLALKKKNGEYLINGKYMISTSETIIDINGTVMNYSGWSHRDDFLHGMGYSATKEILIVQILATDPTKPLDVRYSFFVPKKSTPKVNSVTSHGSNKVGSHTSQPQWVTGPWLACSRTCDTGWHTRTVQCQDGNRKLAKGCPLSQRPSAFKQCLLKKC
Chain of human ADAMTS4 (O75173 213-837): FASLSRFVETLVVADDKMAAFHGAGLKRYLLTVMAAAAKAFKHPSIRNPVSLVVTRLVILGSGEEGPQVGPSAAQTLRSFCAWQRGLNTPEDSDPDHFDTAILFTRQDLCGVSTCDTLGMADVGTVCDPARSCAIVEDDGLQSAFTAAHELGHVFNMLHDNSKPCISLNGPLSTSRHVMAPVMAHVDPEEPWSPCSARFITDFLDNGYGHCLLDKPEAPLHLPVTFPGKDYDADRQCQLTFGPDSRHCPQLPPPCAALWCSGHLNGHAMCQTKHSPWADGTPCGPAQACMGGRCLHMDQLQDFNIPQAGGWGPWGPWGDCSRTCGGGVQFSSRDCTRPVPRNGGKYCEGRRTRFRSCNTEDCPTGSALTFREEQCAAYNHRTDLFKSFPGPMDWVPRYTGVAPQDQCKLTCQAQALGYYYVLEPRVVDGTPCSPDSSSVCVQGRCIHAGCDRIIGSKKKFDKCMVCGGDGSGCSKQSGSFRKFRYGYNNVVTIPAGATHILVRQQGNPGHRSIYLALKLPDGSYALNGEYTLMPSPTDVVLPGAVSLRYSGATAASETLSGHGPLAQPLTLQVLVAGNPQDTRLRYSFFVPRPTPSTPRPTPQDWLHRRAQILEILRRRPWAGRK

| Compound | IC50 (human ADAMTS4; [3]) [nM] | IC50 (human TACE) [nM] | IC50 (human ADAMTS6) [nM] | IC50 (human MMP13 [1]) [nM] | IC50 (human ADAMTS-5) [nM] | IC50 (human MMP14) [nM] | IC50 (human MMP13 [2]) [nM] | IC50 (human ADAMTS4) [nM] |
| --- | --- | --- | --- | --- | --- | --- | --- | --- |
| COc1cc(N2CCN(C(=O)CC[C@@]3(C4CC4)NC(=O)NC3=O)C[C@@H]2C)cc(Cl)c1F [Cpd 62, (5S)-5-[3-[(3S)-4-(3-chloro-4-fluoro-5-methoxy-phenyl)-3-methyl-piperazin-1-yl]-3-oxo-propyl]-5-cyclopropyl-imidazolidine-2,4-dione] |  | > 100 | 0.001 to 25 | > 100 | 0.001 to 25 | > 100 |  | 50 to 100 |
| COc1cncc(N2CCN(C(=O)[C@@H](C)C[C@@]3(C4CC4)NC(=O)NC3=O)C[C@@H]2C)c1 (stereo in doubt) [Cpd 64, 5-cyclopropyl-5-[3-[(3 S)-4-(5-methoxy-3-pyridyl)-3-methyl-piperazin-1-yl]-2-methyl-3-oxo-propyl]imidazolidine-2,4-dione] | > 100 | > 100 | 50 to 100 | > 100 | 50 to 100 | > 100 |  |  |
| COc1cc(N2CCN(C(=O)CCC3(C)NC(=O)NC3=O)CC2)cc(Cl)c1Cl (centres unmarked) [Cpd 48, 5-[3-[4-(3,4-dichloro-5-methoxy-phenyl)piperazin-1-yl]-3-oxo-propyl]-5-methyl-imidazolidine-2,4-dione] | > 100 | > 100 | 0.001 to 25 |  | 50 to 100 | > 100 | > 100 |  |
| COc1cc(N2CCN(C(=O)CCC3(c4cccc(C)n4)NC(=O)NC3=O)C[C@@H]2C)cc(F)c1F (stereo partly drawn) [Cpd 61, 5-[3-[(3S)-4-(3,4-difluoro-5-methoxy-phenyl)-3-methyl-piperazin-1-yl]-3-oxo-propyl]-5-(6-methyl-2-pyridyl)imidazolidine-2,4-dione] | > 100 | > 100 | 0.001 to 25 | > 100 | 25 to 50 | > 100 |  |  |
| COc1cc(N2CCN(C(=O)CC[C@@]3(C)NC(=O)NC3=O)C[C@@H]2C)cc(C)c1Cl [Cpd 105, (5R)-5-[3-[(3S)-4-(4-chloro-3-methoxy-5-methyl-phenyl)-3-methyl-piperazin-1-yl]-3-oxo-propyl]-5-methyl-imidazolidine-2,4-dione] |  | > 100 | 0.001 to 25 | > 100 | > 100 | > 100 |  | 50 to 100 |
| COc1cc(N2CCN(C(=O)CC[C@@]3(C)NC(=O)NC3=O)C[C@@H]2C)ccc1F [Cpd 93, (5R)-5-[3-[(3 S)-4-(4-fluoro-3-methoxy-phenyl)-3-methyl-piperazin-1-yl]-3-oxo-propyl]-5-methyl-imidazolidine-2,4-dione] | > 100 | > 100 | 0.001 to 25 | > 100 | > 100 | > 100 |  |  |
| CC(C)c1cc(N2CCN(C(=O)CC[C@@]3(C)NC(=O)NC3=O)C[C@@H]2C)ccc1Cl [Cpd 85, (5R)-5-[3-[(3 S)-4-(4-chloro-3-isopropyl-phenyl)-3-methyl-piperazin-1-yl]-3-oxo-propyl]-5-methyl-imidazolidine-2,4-dione] | > 100 |  | 0.001 to 25 | > 100 |  |  |  |  |
| COCC1(CC(C)C(=O)N2CCN(c3ccc(Cl)c(OC)c3)[C@@H](C)C2)NC(=O)NC1=O (mixture of isomers) [Cpd 47, 5-[3-[(3S)-4-(4-chloro-3-methoxy-phenyl)-3-methyl-piperazin-1-yl]-2-methyl-3-oxo-propyl]-5-(methoxymethyl)imidazolidine-2,4-dione] |  | > 100 | 0.001 to 25 |  | 25 to 50 | > 100 | > 100 | 25 to 50 |
| COc1cc(Cl)c(C)cc1N1CCN(C(=O)CCC2(C)NC(=O)NC2=O)CC1 (centres unmarked) [Cpd 58, 5-[3-[4-(4-chloro-2-methoxy-5-methyl-phenyl)piperazin-1-yl]-3-oxo-propyl]-5-methyl-imidazolidine-2,4-dione] | > 100 | > 100 | 25 to 50 | > 100 | > 100 |  |  |  |
| COc1cc(F)cc(N2CCN(C(=O)CC[C@@]3(C)NC(=O)NC3=O)CC2)c1 [Cpd 19, (R)-5-[3-[4-(3-fluoro-5-methoxy-phenyl)piperazin-1-yl]-3-oxo-propyl]-5-methyl-imidazolidine-2,4-dione] | > 100 | > 100 | 50 to 100 |  | > 100 |  | > 100 |  |
| COCC1(CC(C)C(=O)N2CCN(c3cc(F)c(F)c(OC)c3)[C@@H](C)C2)NC(=O)NC1=O (mixture of isomers) [Cpd 46, 5-[3-[(3S)-4-(3,4-difluoro-5-methoxy-phenyl)-3-methyl-piperazin-1-yl]-2-methyl-3-oxo-propyl]-5-(methoxymethyl)imidazolidine-2,4-dione] |  | > 100 | 0.001 to 25 |  | 25 to 50 |  | > 100 | 25 to 50 |
| COc1cc(N2CCN(C(=O)CCC3(C)NC(=O)NC3=O)C[C@@H]2C)cc(F)c1F (some centres unmarked) [Cpd 22, 5-[3-[(3 S)-4-(3,4-difluoro-5-methoxy-phenyl)-3-methyl-piperazin-1-yl]-3-oxo-propyl]-5-methyl-imidazolidine-2,4-dione] | > 100 | > 100 | 0.001 to 25 |  | > 100 |  | > 100 |  |

Second part, led by results:

| IC50 (human ADAMTS4; [3]) [nM] | IC50 (human TACE) [nM] | IC50 (human ADAMTS6) [nM] | IC50 (human MMP13 [1]) [nM] | IC50 (human ADAMTS-5) [nM] | IC50 (human MMP14) [nM] | IC50 (human MMP13 [2]) [nM] | Compound | IC50 (human ADAMTS4) [nM] |
| --- | --- | --- | --- | --- | --- | --- | --- | --- |
| > 100 | > 100 | 0.001 to 25 | > 100 | > 100 | > 100 |  | CCc1cc(N2CCN(C(=O)CC[C@@]3(C)NC(=O)NC3=O)CC2)cc(OC)c1Cl [Cpd 115, (5R)-5-[3-[4-(4-chloro-3-ethyl-5-methoxy-phenyl)piperazin-1-yl]-3-oxo-propyl]-5-methyl-imidazolidine-2,4-dione] |  |
| > 100 | > 100 | 0.001 to 25 |  | 50 to 100 | > 100 | > 100 | COc1cc(N2CCN(C(=O)CC[C@H]3NC(=O)NC3=O)CC2)cc(Cl)c1Cl [Cpd 145, (5R)-5-[3-[4-(3,4-dichloro-5-methoxy-phenyl)piperazin-1-yl]-3-oxo-propyl]imidazolidine-2,4-dione] |  |
| > 100 | > 100 | 0.001 to 25 | > 100 | > 100 | > 100 |  | CCc1cc(N2CCN(C(=O)CC[C@@]3(C)NC(=O)NC3=O)C[C@@H]2C)cc(OC)c1Cl [Cpd 106, (5R)-5-[3-[(3 S)-4-(4-chloro-3-ethyl-5-methoxy-phenyl)-3-methyl-piperazin-1-yl]-3-oxo-propyl]-5-methyl-imidazolidine-2,4-dione] |  |
| > 100 | > 100 | 0.001 to 25 | > 100 | 25 to 50 | > 100 |  | COc1cc(N2CCN(C(=O)CC[C@H]3NC(=O)NC3=O)C[C@@H]2C)cc(Cl)c1F [Cpd 148, (5R)-5-[3-[(3 S)-4-(3-chloro-4-fluoro-5-methoxy-phenyl)-3-methyl-piperazin-1-yl]-3-oxo-propyl]imidazolidine-2,4-dione] |  |
| > 100 | > 100 | 0.001 to 25 | > 100 | > 100 | > 100 |  | COc1cc(Cl)cc(N2CCN(C(=O)CC[C@@]3(C)NC(=O)NC3=O)C[C@@H]2C)c1 [Cpd 96, (5R)-5-[3-[(3 S)-4-(3-chloro-5-methoxy-phenyl)-3-methyl-piperazin-1-yl]-3-oxo-propyl]-5-methyl-imidazolidine-2,4-dione] |  |
| > 100 |  | 0.001 to 25 | > 100 |  |  |  | CCc1cc(N2CCN(C(=O)[C@@H](C)C[C@@]3(COC)NC(=O)NC3=O)C[C@@H]2C)ccc1Cl (stereo in doubt) [Cpd 124, 5-[3-[(3S)-4-(4-chloro-3-ethyl-phenyl)-3-methyl-piperazin-1-yl]-2-methyl-3-oxo-propyl]-5-(methoxymethyl)imidazolidine-2,4-dione] |  |
| > 100 |  | 0.001 to 25 | > 100 |  |  |  | CCc1cc(N2CCN(C(=O)CCC3(CCC(=O)OC(C)(C)C)NC(=O)NC3=O)C[C@@H]2C)ccc1Cl (stereo partly drawn) [Cpd 114, tert-butyl 3-[4-[3-[(3S)-4-(4-chloro-3-ethyl-phenyl)-3-methyl-piperazin-1-yl]-3-oxo-propyl]-2,5-dioxo-imidazolidin-4-yl]propanoate] |  |
| > 100 |  | 0.001 to 25 | > 100 |  |  |  | CCc1cc(N2CCN(C(=O)CCC3(CCC(=O)O)NC(=O)NC3=O)C[C@@H]2C)ccc1Cl (some centres unmarked) [Cpd 116, 3-[4-[3-[(3 S)-4-(4-chloro-3-ethyl-phenyl)-3-methyl-piperazin-1-yl]-3-oxo-propyl]-2,5-dioxo-imidazolidin-4-yl]propanoic acid] |  |
